Test [1] has as its system HER3. In words: HER3 phosphorylation in HRG-stimulated MCF-7 cell lysates (immunoblot). To be noted: for Effect on phosphorylation (activation) of HER3: MCF-7 cell lysates, 1 μg/ml cytochalasin D 30 minutes, then 10 nM HRG 12 minutes.
Procedure: (§3) MCF-7 cells were maintained in the same media as T-47D cells and supplemented additionally with 10 μg/ml insulin. Prior to experimental procedures, cells were cultured in DMEM supplemented only with 1% penicillin-streptomycin for 16 hrs. […] Cells were treated with 1 μg/ml Cytochalasin D for 30 minutes prior to addition of HRG.
(§4) Images were obtained using ChemiDoc™ XRS+ (BIO-RAD) and quantification was performed with Image Lab Software. […] All commercial antibodies were used according to manufacturer recommendations.
Test [2] concerns MTK1/HER3 association. As to the kind of experiment: HRG-induced MTK1/HER3 association, MTK1 immunoprecipitation and immunoblot in MCF-7 cells. To be noted: then 10 nM HRG 12 minutes; for Effect on HRG-induced MTK1/HER3 association: MCF-7 cells pre-treated with 0, 50, 100 or 200 nM lapatinib for 1 hour, pTyr immunoblot of MTK1 IP.
Procedure: as §3, §4
The cells were then washed twice with ice-cold 1× phosphate buffered saline pH 7.4. […] Immune complexes recovered using protein A-Sepharose beads (Sigma Cat# P3391) were washed twice with ice-cold lysis buffer and denatured with Laemmli sample buffer.
Test [3] concerns PI3K. The settings on record: Smirnova et al., 2012; cited from earlier work.
Test [4] concerns MCF-7 cells. As to the kind of experiment: HRG-induced extracellular acidification, media pH measurement. The test is classed as cell-based, human. How it is done: (§1) MCF-7 and T-47D cells were seeded in complete growth media at a density of 0.4×10^6 cells per well in 12-well plates (VWR #62406-165) for proliferation assays and 0.7×10^6 cells per well for pH measurements. Cells were allowed to adhere for 16 hours, followed by 4 hour serum starvation in DMEM, 1% penicillin-streptomycin without fetal bovine serum. […] Each condition was performed in triplicate and repeated a minimum of 3 times. After 24 hours, the cells were counted using a TC-10 Bio-Rad automated cell counter and the media pH was recorded using a pH meter probe. Data shown for each condition represents n=3. A two sided student t-test with standard deviation were used to perform statistical analyses on proliferation rates and media pH measurements. Statistical significance was determined by a p-value ≦0.05.
(§2) MCF-7 cells were seeded (onto 10 cm cell culture plates, VWR #353003) at a density of 5.0×10^6 cells and allowed to adhere for 16 hours. […] The cells were counted and seeded onto 12 well plates (VWR #62406-165) at a density of 0.7×10^6 cells per well for pH measurements and scratch assays or at density of 0.4×10^6 cells per well for proliferation assays. MTK1 knockdown efficiency was determined by immunoblot analysis using 150 μg whole cell lysate at 120 hours post-secondary transfection. […]

The subject of test [5] is MCF-7 cells. In words: Cell proliferation and viability (automated cell count, trypan blue). The settings on record: 10 nM HRG or 3.3 nM EGF, 24 hours. It is filed as cell-based, human. How it is done:
as §1, §2

In test [6] the test system is MCF-7 cells. As to the kind of experiment: Scratch assay, HRG-induced cell migration. It is filed as cell-based, human. To be noted: 250 nM lapatinib pre-treatment, 10 nM HRG. How it is done: MCF-7 cells were seeded (onto 10 cm cell culture plates, VWR #353003) at a density of 5.0×10^6 cells and allowed to adhere for 16 hours. The cells were then transfected with 434 pmol of siRNA specific for MTK1 (Thermo Scientific ON-TARGETplus SMARTpool, Human MAP3K4 (4216) Cat #L-003789-00-0005) or non-targeting (NS) (ON-TARGETplus Non-targeting Pool Cat #D-001810-10-05) as control using lipofectamine 2000 according to manufacture recommendations. The cells were transfected with siRNA a second time 24 hours later using lipofectamine 2000 to enhance knockdown efficiency. Twenty-four hours after the second transfection the cells were detached using 0.25% trypsin (Invitrogen #15050-065). The cells were counted and seeded onto 12 well plates (VWR #62406-165) at a density of 0.7×10^6 cells per well for pH measurements and scratch assays or at density of 0.4×10^6 cells per well for proliferation assays. MTK1 knockdown efficiency was determined by immunoblot analysis using 150 μg whole cell lysate at 120 hours post-secondary transfection. Each condition was performed in triplicate and repeated a minimum of 3 times. Data shown for each condition represents n=3. Statistical analysis was performed as described above.
Scratch assays were performed in 12-well plates using MCF-7 cells at a density of 0.7×10^6 cells per well. […]

Entries after “also recorded” stand apart in the source; their conditions may differ.

With `C=C1[C@@H](C)[C@H]2[C@H](Cc3ccccc3)NC(=O)[C@]23[C@H](OC(C)=O)/C=C/[C@@](C)(O)C(=O)[C@@H](C)C/C=C/[C@H]3[C@@H]1O` [cytochalasin D], the “Effect on phosphorylation (activation) of HER3” value in test [1] is recorded as “not affected; also recorded: remained the same”; in test [1] (listed as Cytochalasin D), “no effect”. Moreover, the “Effect on HRG-induced MTK1/HER3 association (in words)” value is “disrupted the communication or signaling between HER3/ErbB3 and MTK1; also recorded: inhibited HRG induced MTK1/HER3 association; also recorded: inhibited MTK1 and HER3 association” in test [2] (MCF-7 cells, 1 μg/ml cytochalasin D 30 minutes); “diminished interaction between MTK1 and HER3” in test [2] (MCF-7 cells, 1 μg/ml cytochalasin D 30 minutes, listed as Cytochalasin D). The “Decrease of interaction between HER3 and MTK1” value in test [2] (MCF-7 cells, 1 μg/ml cytochalasin D 30 minutes, pY1289 HER3 immunoblot of MTK1 IP) was about 60%.

On to `Cc1ccc([N+](=O)[O-])cc1S(=O)(=O)N(C)/N=C/c1cnc2ccc(Br)cn12` [PIK-75], for which the “Effect on cell motility and invasion” value in test [3] is “inhibits cell motility and invasion”.

“EGF: growth factor used to stimulate cells at 3.3 nM; activates EGFR and HER2 (NSDSECPLSHDGYCLHDGVCMYIEALDKYACNCVVGYIGERCQYRDLKWWELR; Epidermal growth factor; UniProt P01133 971-1023, looked up)”: the “Extracellular acidification of cell culture media by stimulation” value in test [4] (10 nM HRG or 3.3 nM EGF, 24 hours, compared to vehicle) is “no effect; also recorded: did not induce extracellular acidification”. Moreover, the “Cell proliferation on stimulation” value in test [5] is listed as “proliferative response was detected; also recorded: induced cell proliferation”.

On to `CS(=O)(=O)CCNCc1ccc(-c2ccc3ncnc(Nc4ccc(OCc5cccc(F)c5)c(Cl)c4)c3c2)o1` [lapatinib], for which the “Effect on HRG-induced extracellular acidification” value in test [4] (250 nM lapatinib pre-treatment, 10 nM HRG 24 hours, media pH) is “significantly decreased; also recorded: inhibition of HRG-induced extracellular acidification”. In addition, in test [6], the “Effect of lapatinib on HRG-induced cell migration” value was “significantly decreased cell migration”. Further, the “Effect on tyrosine phosphorylation of HER3 in lysates” value in test [1] (MCF-7 cells, lapatinib 50-200 nM pre-treatment 1 hour, 10 nM HRG 12 minutes) is “effectively inhibited; also recorded: decreased”. Further, the “Effect on HRG-induced MTK1/HER3 association” value in test [2] is “effectively inhibited; also recorded: attenuates MTK1/HER3 association; also recorded: inhibited association of MTK1 and HER3”; in test [2] (listed as Lapatinib), “decreased the interaction between HER3 and MTK1 in a dose dependent manner”.

The values above are taken from patent publication US20150045407A1, “MTK1-ACTIN INHIBITORS AND METHODS OF USE” (THE ARIZONA BOARD OF REGENTS ON BEHALF OF THE UNIVERSITY OF …, priority 2013, published 2015).
